# Results as given in patent publication US10576085B2, “Substituted aminopurine compounds, compositions thereof, and methods of treatment therewith” (Signal Pharmaceuticals, LLC, priority 2016, dated 2020).
# Test system: cancer cell lines of Table 2
# Assay: Multiplexed cytotoxicity assay: apoptosis (activated caspase-3; Cal_X2, Cal_X5, Max_Fold_Change)
# Format: cell-based
# Description: Cells are grown in RPMI1640, 10% FBS, 2 mM L-alanyl-L-Glutamine, 1 mM Na pyruvate or a special medium in a humidified atmosphere of 5% CO2 at 37° C. Cells are seeded into 384-well plates and incubated in a humidified atmosphere of 5% CO2 at 37° C. Compounds are added 24 h post cell seeding. At the same time, a time zero untreated cell plate is generated. After a 72 hour incubation period, cells are fixed and stained with fluorescently labeled antibodies and nuclear dye to allow visualization of nuclei, apoptotic cells and mitotic cells. Apoptotic cells are detected using an anti-active caspase-3 antibody. Mitotic cells are detected using an anti phospho-histone-3 antibody. Compounds are serially diluted 3.16-fold and assayed over 10 concentrations in a final assay concentration of 0.1% DMSO from the highest test concentration of 10 μM. Automated fluorescence microscopy was carried out using a Molecular Devices ImageXpress Micro XL high-content imager, and images are collected with a 4× objective.
# The activated caspase-3 marker labels cells from early to late stage apoptosis. Concentrations of test compound that cause a 5-fold induction in the caspase-3 signal (Cal_X5) indicate significant apoptosis induction. The maximal induction of caspase 3 by compound in comparison with DMSO control is reported as Max_Fold_Change.
# In Another Experiment, Cells were Grown in RPMI1640, 10% FBS, 2 mM L-alanyl-L-Glutamine, 1 mM Na pyruvate or a special medium in a humidified atmosphere of 5% CO2 at 37° C. Cells were seeded into 384-well plates and incubated in a humidified atmosphere of 5% CO2 at 37° C. Compounds were added 24 h post cell seeding. At the same time, a time zero untreated cell plate was generated. After a 72 hour incubation period, cells were fixed and stained with fluorescently labeled antibodies and nuclear dye to allow visualization of nuclei, apoptotic cells and mitotic cells. Apoptotic cells were detected using an anti-active caspase-3 antibody. Mitotic cells were detected using an anti phospho-histone-3 antibody. Compounds were serially diluted 3.16-fold and assayed over 10 concentrations in a final assay concentration of 0.1% DMSO from the highest test concentration of 10 μM. Automated fluorescence microscopy was carried out using a Molecular Devices ImageXpress Micro XL high-content imager, and images were collected with a 4× objective.
# The activated caspase-3 marker labels cells from early to late stage apoptosis. Concentrations of test compound that cause a 2-fold (Cal-X2) or 5-fold induction in the caspase-3 signal (Cal_X5) indicated significant apoptosis induction. The maximal induction of caspase 3 by compound in comparison with DMSO control was reported as Max_Fold_Change.
smiles,measurement,setting,value
"C[C@]1(C(N)=O)CC[C@@H](n2c(Nc3c(Cl)cc(Cl)cc3Cl)nc3cnc(N[C@@H]4CCOC[C@H]4F)nc32)CC1 [Compound 1, cis-4-[2-{[(3S,4R)-3-fluorooxan-4-yl]amino}-8-(2,4,6-trichloroanilino)-9H-purin-9-yl]-1-methyl cyclohexane-1-carboxamide]",CalX2,"NALM6, Leukemia",0.1241 µM
same,CalX5,"NALM6, Leukemia",10 µM
same,Max fold change,"NALM6, Leukemia",5
same,CalX2,"NAMALWA, Lymphoma",5.9431 µM
same,CalX5,"NAMALWA, Lymphoma",10 µM
same,Max fold change,"NAMALWA, Lymphoma",2.68
same,CalX2,"OCUG1, Liver",0.0848 µM
same,CalX5,"OCUG1, Liver",0.49 µM
same,Max fold change,"OCUG1, Liver",5.49
same,CalX2,"RAJI, Lymphoma",2.5564 µM
same,CalX5,"RAJI, Lymphoma",4.07 µM
same,Max fold change,"RAJI, Lymphoma",24.81
same,CalX2,"RAMOSRA1, Lymphoma",4.5496 µM
same,CalX5,"RAMOSRA1, Lymphoma",7.39 µM
same,Max fold change,"RAMOSRA1, Lymphoma",25.1
same,CalX2,"REC1, Lymphoma",10 µM
same,CalX5,"REC1, Lymphoma",10 µM
same,Max fold change,"REC1, Lymphoma",1.86
same,CalX2,"RPMI6666, Lymphoma",3.0419 µM
same,CalX5,"RPMI6666, Lymphoma",4.37 µM
same,Max fold change,"RPMI6666, Lymphoma",26.35
same,CalX2,"RS411, Leukemia",3.8025 µM
same,CalX5,"RS411, Leukemia",8.4 µM
same,Max fold change,"RS411, Leukemia",5.83
same,CalX2,"SCABER, Bladder",0.0086 µM
same,CalX5,"SCABER, Bladder",0.0506 µM
same,Max fold change,"SCABER, Bladder",29.47
same,CalX2,"SCC9, Head and Neck",0.6679 µM
same,CalX5,"SCC9, Head and Neck",3.86 µM
same,Max fold change,"SCC9, Head and Neck",9.58
same,CalX2,"SKNEP1, Kidney",10 µM
same,CalX5,"SKNEP1, Kidney",10 µM
same,Max fold change,"SKNEP1, Kidney",1.15
same,CalX2,"SNU423, Liver",0.0909 µM
same,CalX5,"SNU423, Liver",1.65 µM
same,Max fold change,"SNU423, Liver",7.32
same,CalX2,"SR, Lymphoma",1.2842 µM
same,CalX5,"SR, Lymphoma",3.07 µM
same,Max fold change,"SR, Lymphoma",33.52
same,CalX2,"ST486, Lymphoma",4.2422 µM
same,CalX5,"ST486, Lymphoma",6.11 µM
same,Max fold change,"ST486, Lymphoma",10.85
same,CalX2,"SUDHL4, Lymphoma",2.5668 µM
same,CalX5,"SUDHL4, Lymphoma",4.83 µM
same,Max fold change,"SUDHL4, Lymphoma",10.75
same,CalX2,"SUDHL5, Lymphoma",1.6359 µM
same,CalX5,"SUDHL5, Lymphoma",4.54 µM
same,Max fold change,"SUDHL5, Lymphoma",10.37
same,CalX2,"SUDHL8, Lymphoma",1.2344 µM
same,CalX5,"SUDHL8, Lymphoma",4.19 µM
same,Max fold change,"SUDHL8, Lymphoma",10.79
same,CalX2,"SUDHL10, Lymphoma",3.611 µM
same,CalX5,"SUDHL10, Lymphoma",4.87 µM
same,Max fold change,"SUDHL10, Lymphoma",11.63
same,CalX2,"SUPT1, Lymphoma",4.5476 µM
same,CalX5,"SUPT1, Lymphoma",9.21 µM
same,Max fold change,"SUPT1, Lymphoma",5.76
same,CalX2,"T24, Bladder",4.5443 µM
same,CalX5,"T24, Bladder",10 µM
same,Max fold change,"T24, Bladder",2.61
same,CalX2,"TCCSUP, Bladder",5.6435 µM
same,CalX5,"TCCSUP, Bladder",10 µM
same,Max fold change,"TCCSUP, Bladder",3.67
same,CalX2,"TF1, Leukemia",0.006 µM
same,CalX5,"TF1, Leukemia",0.0296 µM
same,Max fold change,"TF1, Leukemia",16.1
same,CalX2,"THP1, Leukemia",0.132 µM
same,CalX5,"THP1, Leukemia",3.9 µM
same,Max fold change,"THP1, Leukemia",6.3
same,CalX2,"TUR, Lymphoma",0.6984 µM
same,CalX5,"TUR, Lymphoma",3.45 µM
same,Max fold change,"TUR, Lymphoma",17.35
same,CalX2,"UMUC3, Bladder",2.7934 µM
same,CalX5,"UMUC3, Bladder",5.76 µM
same,Max fold change,"UMUC3, Bladder",6.56
same,Induction of apoptosis,variety of cancer cell lines,induce apoptosis
